Reference: publication PMC11791314 (The Journal of Biological Chemistry, 2024)

Assays:
[1] = target: T1, α1-tubulin (ChET) (Gallus gallus, UniProt P02552); test: cryo-EM structure ([…] Å); assay type: binding
T1 construct: gene TUBA1A; native α1/β1-tubulin from chicken erythrocytes, Cp-52 C8 ring; with β1-tubulin (TUBB1, P09207)

[2] = target: T2, bovine brain tubulin (BBT), αβ-tubulin heterodimer; test: mass photometry of ring assembly (Kd-app); assay type: binding, Bos taurus
T2 construct: native bovine brain αβ-tubulin (isotype mixture, PurSolutions)

[3] = target: T3, blood cell-specific α1/β1-tubulin (ChET), β1-tubulin (Gallus gallus, UniProt P02552+P09207); test: ([…] Å, C8 ring); mass photometry Kd-app; assay type: binding
T3 construct: gene TUBA1A; native α1/β1-tubulin purified from the marginal band of chicken erythrocytes; with α1-tubulin (TUBA1A, P02552)

[4] = test system: T4, HeLa cell line tubulin (HeLaT), αβ-tubulin heterodimer; test: mass photometry of ring assembly (Kd-app); assay type: binding
T4 construct: native αβ-tubulin purified from cultured HeLa cells (isotype mixture); with α1B-tubulin

T1 sequence (P02552 whole entry): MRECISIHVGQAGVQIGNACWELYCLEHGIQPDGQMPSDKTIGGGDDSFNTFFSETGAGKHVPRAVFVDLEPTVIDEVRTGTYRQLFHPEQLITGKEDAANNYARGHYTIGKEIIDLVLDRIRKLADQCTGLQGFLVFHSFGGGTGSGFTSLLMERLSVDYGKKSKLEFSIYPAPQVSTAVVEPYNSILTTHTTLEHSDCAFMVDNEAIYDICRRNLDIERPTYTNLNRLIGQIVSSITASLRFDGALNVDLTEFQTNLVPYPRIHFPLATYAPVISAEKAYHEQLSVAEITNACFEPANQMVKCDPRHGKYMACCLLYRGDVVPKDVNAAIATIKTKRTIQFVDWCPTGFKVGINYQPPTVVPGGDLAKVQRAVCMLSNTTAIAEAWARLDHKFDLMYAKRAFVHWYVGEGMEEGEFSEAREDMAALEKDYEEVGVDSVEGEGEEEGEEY
T1 sequence (P09207 whole entry partner): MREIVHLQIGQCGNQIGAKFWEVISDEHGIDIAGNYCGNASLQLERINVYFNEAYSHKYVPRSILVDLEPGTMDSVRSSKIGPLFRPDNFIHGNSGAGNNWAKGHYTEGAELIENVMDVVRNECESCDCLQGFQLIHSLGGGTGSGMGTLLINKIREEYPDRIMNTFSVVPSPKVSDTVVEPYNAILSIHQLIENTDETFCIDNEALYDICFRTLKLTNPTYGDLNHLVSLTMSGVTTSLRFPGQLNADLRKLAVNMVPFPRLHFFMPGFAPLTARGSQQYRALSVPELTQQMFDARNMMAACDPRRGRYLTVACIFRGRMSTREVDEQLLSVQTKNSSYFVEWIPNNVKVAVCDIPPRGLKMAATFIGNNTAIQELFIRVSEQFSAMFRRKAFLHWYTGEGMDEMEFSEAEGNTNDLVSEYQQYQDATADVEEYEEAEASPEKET
T3 sequence (P02552 whole entry): as the sequence (P02552 whole entry) above
T3 sequence (P09207 whole entry): as the sequence (P09207 whole entry partner) above

Nc1nc2c(ncn2[C@@H]2O[C@H](COP(=O)(O)OP(=O)(O)OP(=O)(O)O)[C@@H](O)[C@H]2O)c(=O)[nH]1 [GTP] was tested, and the “cryo-EM structure (3.2 Å)” value [1] was “comprises one copy of α1-tubulin with its bound GTP”.

COc1ccc(C[C@H]2NC(=O)/C=C/C[C@@H]([C@H](C)[C@H]3O[C@@H]3c3ccccc3)OC(=O)[C@H](CC(C)C)OC(=O)C(C)(C)CNC2=O)cc1Cl [Cp-52, cryptophycin-52] was tested, and the Kd [2] was 172 ± 36 nM, the Kd [3] was 65 ± 17 nM and the Kd [4] was 25 ± 7 nM.
